Assay [1] deals with T1, Thymidylate synthase (Lactobacillus casei, UniProt P00469).
T1 sequence (P00469 whole entry): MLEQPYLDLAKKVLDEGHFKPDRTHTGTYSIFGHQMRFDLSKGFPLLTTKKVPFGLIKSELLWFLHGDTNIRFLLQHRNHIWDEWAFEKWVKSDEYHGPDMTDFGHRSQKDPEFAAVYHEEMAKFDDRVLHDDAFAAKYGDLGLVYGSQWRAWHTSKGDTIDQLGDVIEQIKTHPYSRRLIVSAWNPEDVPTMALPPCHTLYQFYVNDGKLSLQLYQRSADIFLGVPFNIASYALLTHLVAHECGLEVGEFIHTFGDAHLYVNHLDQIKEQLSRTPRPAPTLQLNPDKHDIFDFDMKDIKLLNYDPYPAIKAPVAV
Briefly: Inhibition of Lactobacillus casei thymidylate synthase using MTHF and dUMP as substrates. Also noted: species or system Lacticaseibacillus casei.

Assay [2] has as its target Thymidylate synthase (Homo sapiens) (UniProt P04818). The assay can be described thus: Inhibition of human thymidylate synthase using MTHF and dUMP as substrates at 100 uM.
The test system of assay [3] is Enterococcus faecalis. Briefly: Inhibition of Enterococcus fecalis thymidylate synthase using MTHF and dUMP as substrates at 100 uM.
The subject of assay [4] is Escherichia coli. The assay can be described thus: Inhibition of Escherichia coli thymidylate synthase using MTHF and dUMP as substrates at 100 uM.
Assay [5] deals with T2, Thymidylate synthase (Pneumocystis carinii, UniProt P13100).
T2 sequence (P13100 whole entry): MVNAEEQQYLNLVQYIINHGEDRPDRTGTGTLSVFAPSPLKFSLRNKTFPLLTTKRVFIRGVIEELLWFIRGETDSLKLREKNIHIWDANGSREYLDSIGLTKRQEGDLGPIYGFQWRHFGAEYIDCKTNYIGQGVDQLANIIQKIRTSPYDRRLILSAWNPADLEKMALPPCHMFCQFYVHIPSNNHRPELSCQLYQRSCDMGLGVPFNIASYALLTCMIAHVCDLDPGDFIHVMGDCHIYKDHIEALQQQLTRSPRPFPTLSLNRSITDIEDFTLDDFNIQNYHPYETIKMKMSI
The assay can be described thus: Inhibition of Pneumocystis carinii thymidylate synthase using MTHF and dUMP as substrates.

Assay [6] is described as follows: Inhibition of Enterococcus fecalis thymidylate synthase using MTHF and dUMP as substrates. Set-up: species or system Enterococcus faecalis.
The target of assay [7] is T3, Thymidylate synthase (Pneumocystis carinii) (UniProt P13100).
T3 sequence (whole entry): T2 sequence (P13100 whole entry)
Briefly: Inhibition of Pneumocystis carinii thymidylate synthase using MTHF and dUMP as substrates at 100 uM.

Assay [8] can be described thus: Inhibition of Escherichia coli thymidylate synthase using MTHF and dUMP as substrates.
Assay [9] concerns the target T4, Thymidylate synthase (Lactobacillus casei) (UniProt P00469).
T4 sequence (whole entry): T1 sequence (P00469 whole entry)
The assay can be described thus: Inhibition of Lactobacillus casei thymidylate synthase using MTHF and dUMP as substrates at 100 uM. The following applies: Lacticaseibacillus casei.

Each structure is given as a SMILES string. Activity calls are given as the source filed them. The calls are words filed in the database; no cut-off is given here.

Sequence of Thymidylate synthase (Homo sapiens) (P04818 2-313 limits assumed): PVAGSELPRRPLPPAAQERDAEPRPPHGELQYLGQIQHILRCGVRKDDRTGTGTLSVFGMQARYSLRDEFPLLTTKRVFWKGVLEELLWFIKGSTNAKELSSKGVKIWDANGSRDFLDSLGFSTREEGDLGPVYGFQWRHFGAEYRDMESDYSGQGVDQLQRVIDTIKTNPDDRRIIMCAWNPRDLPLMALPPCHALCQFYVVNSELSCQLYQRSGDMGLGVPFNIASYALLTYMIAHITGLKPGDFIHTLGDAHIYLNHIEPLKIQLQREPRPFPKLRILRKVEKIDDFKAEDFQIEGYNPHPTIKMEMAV

For the compound `C/C=C/C(=O)Oc1ccc2c3c(cccc13)C(=O)O2`, the results for the Ki in assay [1] and in assay [5] were 6 µM and 10 µM, respectively. For the same compound, the inhibition entry in [2], in [3] and in [4] was “inactive” each time.
`C=CC(=O)Oc1ccc2c3c(cccc13)C(=O)O2`: the Ki was found to be 10 µM in [1], 19 µM in assay [5] and 41 µM in assay [6].
For `O=C(Oc1ccc2c3c(cccc13)C(=O)O2)c1cccc(C(F)(F)F)c1`, the Ki in assay [1] was found to be 33 µM; in assay [6], 41 µM. For the same compound, the inhibition entry in [2], in assay [7] and in [4] was “inactive” throughout.
For `N#Cc1cccc(C(=O)Oc2ccc3c4c(cccc24)C(=O)O3)c1`, the Ki in assay [1] was 0.39 µM; in [5], 0.31 µM; in assay [6] it was 14 µM; in assay [8], 4 µM.
Regarding `O=C(Oc1ccc2c3c(cccc13)C(=O)O2)c1ccco1`, the Ki in assay [1] turned out to be 13 µM; in assay [5], 15 µM; in [6], 20 µM. Besides, the inhibition result in assay [4] was “inactive”.
As to `O=C1Oc2ccc(OC(=O)C3CCCCC3)c3cccc1c23`, the Ki in assay [1] came to 49 µM; in [5], 18 µM; in [8], 66 µM. Further, the inhibition result in assay [2] and in assay [3] was “inactive” each time.
Compound `CC(C)COC(=O)Oc1ccc2c3c(cccc13)C(=O)O2` yielded a Ki in assay [1] of 9 µM. For the same compound, the inhibition result in [2], in assay [7], in assay [3] and in assay [4] was “inactive” throughout.
Consider `CCOC(=O)Oc1ccc2c3c(cccc13)C(=O)O2`, for which the Ki in assay [1] was 10 µM; in assay [5] it was 34 µM; in [6] it was 37 µM; in [8], 67 µM.
For `O=C(Oc1ccc2c3c(cccc13)C(=O)O2)c1ccc(SC(F)(F)F)cc1`, the inhibition entry in [2], in [7], in [3], in assay [4] and in assay [9] was “inactive” each time.
Turning to `O=C(Oc1ccc2c3c(cccc13)C(=O)O2)c1ccc2c(c1)OCO2`, the inhibition result in assay [2], in assay [7], in assay [3], in [4] and in assay [9] was “inactive” each time.
Consider `O=C(Oc1ccc2c3c(cccc13)C(=O)O2)c1ccc([N+](=O)[O-])cc1`, for which the Ki in [1] came to 1.2 µM; in [5], 3.5 µM; in [6] it was 27 µM; in assay [8], 6 µM.

For orientation: Ki means the dissociation constant of the complex between target and ligand, obtained from inhibition or displacement. The low end stands for higher affinity, the high end for lower affinity.

Values taken from ChEMBL document CHEMBL3085649, “2'-Deoxyuridine 5'-monophosphate substrate displacement in thymidylate synthase through 6-hydroxy-2H-naphtho[1,8-bc]furan-2-one derivatives” (J Med Chem, 2013).
